{"source": "patent US20050143420A1", "about": "“Methods and compositions for the treatment and management of hemoglobinopathy and anemia” (priority 2003, published 2005)", "key": {"[1]": {"test_system": "BM-CD34+ cells", "assay": "CD34+ cell differentiation with SCF, Flt3-L, GM-CSF and TNFα; microarray gene expression", "format": "cell-based", "experimental": "(§1) BM-CD34^+ cells were obtained from Cambrex (East Rutherford, N.J.) and cultured in Iscove's MDM with BIT 95000 (StemCell Technologies, UK) in the presence of stem cell factor (SCF), Flt3-L, granulocyte macrophage-colony stimulating factor (GM-CSF) and TNFα for 6 days. To study the effect of 4-(Amino)-2-(2,6-dioxo(3-piperidyl))-isoindoline-1,3-dione on the generation of dendritic cells, CD34^+ progenitor cells were cultured with or without 4-(Amino)-2-(2,6-dioxo(3-piperidyl))-isoindoline-1,3-dione for a period of 6 days. Phenotypic characterization of the cells for erythroid markers (CD36, CD71, glycophorin A and fetal hemoglobin) was established by flow cytometry after six days of culture. Gene expression was monitored by microarray analysis at day 1, day 3 and day 6 of CD34^+ differentiation (FIG. 1).\nRNA purification and microarray analysis. Total RNA was isolated from CD34^+ cells using RNAeasy (Qiagen). Affymetrix U133A gene chips were used for gene expression analysis. Briefly, double-stranded cDNA was synthesized using 5 μg of total RNA. Biotin-labeled cRNA was synthesized using MessageAmp aRNA kit (Ambion), 15 μg of cRNA was fragmented and hybridized to each array. The above procedures were done twice for each RNA sample to obtain replicate biotin-labeled probes. The results from the replicate chips were averaged for calculation of the fold differences."}, "[2]": {"test_system": "CD34+ progenitor cells", "assay": "Fetal hemoglobin induction in CD34+ cells with SCF and Epo, compared or combined with hydroxyurea and 5-azacytidine", "format": "cell-based", "conditions": "for fetal hemoglobin expression: flow cytometry", "experimental": "FIG. 10 depicts the increase in expression of fetal hemoglobin due to 4-(Amino)-2-(2,6-dioxo(3-piperidyl))-isoindoline-1,3-dione over that induced by hydroxyurea or 5-azacytidine. Cells were cultured for six days in the presence of SCF (50 ng/ml) and Epo (2 U/ml), and either DMSO (control), 4-(Amino)-2-(2,6-dioxo(3-piperidyl))-isoindoline-1,3-dione (0.1, 1, 10 μM), 5-azacytidine (0.1, 1 μM; toxic at 10 μM) or hydroxyurea (0.1, 1, 10 μM).\nAs previously, CD34^+ progenitor cells were first expanded with a combination of growth factors (SCF, Flt3-L and IL-3) for 6 days, and erythroid differentiation was then induced with SCF and Epo for 6 days. During the erythroid differentiation period CD34^+ cells were cultured in the presence or absence of IMiDs™, alone or in combination with either hydroxyurea and 5-azacytidine, in order to compare the effect of IMiDs™ to these two known inducers of fetal hemoglobin synthesis. On day 6 of differentiation, the hemoglobin content of the cells was measured by flow cytometry. […] The induction of fetal hemoglobin production was, however, more pronounced with IMiD in comparison to hydroxyurea or 5-azacytidine, with a 10 fold induction in the presence of 10 μM of 4-(Amino)-2-(2,6-dioxo(3-piperidyl))-isoindoline-1,3-dione."}, "[3]": {"test_system": "BM-CD34+ progenitors", "assay": "Erythroid differentiation of expanded CD34+ cells with SCF and Epo; flow cytometry and cell counts", "format": "cell-based", "conditions": "6 days", "experimental": "Differentiation of bone marrow (BM) CD34^+ hematopoietic progenitor cells: BM-CD34^+ progenitors were obtained from Cambrex and cultured in Iscove's MDM with BIT 95000 (serum substitute; StemCell technologies) in the presence of growth factors. During the first 6 days CD34^+ cells were expanded with SCF (100 ng/ml), Flt3-L (100 ng/ml) and IL-3 (20 ng/ml), and then differentiated toward the erythroid lineage by culture in the presence of SCF (50 ng/ml), and Epo (2U or 4U/ml) for 6 days. To study the effect of IMiDs™, CD34^+ progenitors cells were differentiated for a period of 6 days in the presence or absence of 4-(Amino)-2-(2,6-dioxo(3-piperidyl))-isoindoline-1,3-dione or 3-(4-amino-1-oxo-1,3-dihydroisoindol-2-yl)-piperidine-2,6-dione. (FIG. 6)\nFlow cytometry: Surface antigen expression was analyzed by flow cytometry (FACScan, Coulter) after 6 days of culture. Cells were processed for double staining (30 min at 4° C.) at day 6 using FITC and PE conjugated monoclonal antibodies (mAbs). Antibodies used were: CD34-PE, CD36-FITC, CD71-FITC and Glycophorin A-PE, all from BD Pharmingen (San Diego, Calif.). After 6 days of culture, cells were washed with phosphate-buffered saline (PBS), fixed with 2% paraformaldehyde, permeabilized with cytopermeafix (BD Pharmingen) and stained with HbF-PE (BD Pharmingen, San Diego, Calif.), Hbε-FITC (Cortex Biochem, San Leandro, Calif.) mAbs and HbA-FITC (Perkin Elmer) and analyzed by flow cytometry (FACScan, Coulter or FCASAria, BD Pharmingen)."}, "[4]": {"test_system": "STAT5", "assay": "Epo-induced STAT5 phosphorylation in UT-7 cells", "format": "cell-based, human", "conditions": "10 μM, 45 min pre-incubation, Epo 10 U/ml for 10 minutes", "from_the_text": "To further characterize the synergy of Epo and IMiDs™ on erythroid cells, we have performed signaling experiments in a UT-7 cell line, in particular, to determine the effect if IMiDs on the expression of STAT5, which is known to be activated upon the binding Epo to the erythropoietin receptor (EpoR). UT-7 is a human leukemia cell line absolutely dependent upon erythropoietin for proliferation, and was isolated from a patient with acute myeloid leukemia (AML M7). The level of EpoR expression in these cells is around 60%.\nTo study the role of IMiDs™ in Epo signaling, we stimulated UT-7 cells with Epo in the presence or absence of 4-(Amino)-2-(2,6-dioxo(3-piperidyl))-isoindoline- 1,3-dione as follows. UT-7 cells were expended in RPMI medium with 10% FBS and GM-CSF (5 ng/ml). The cells were serum and growth factor starved overnight, then pre-incubated for 45 minutes with 10 μM of 4-(Amino)-2-(2,6-dioxo(3-piperidyl))-isoindoline-1,3-dione or DMSO control, and stimulated with Epo (10 U/ml) for 10 minutes. 4-(Amino)-2-(2,6-dioxo(3-piperidyl))-isoindoline-1,3-dione increased Epo-induced STAT5 (Tyr694) phosphorylation by 2 fold (FIG. 12). This effect was detected within 10 minutes of stimulation with Epo."}, "[5]": {"test_system": "BM-CD34+ cells", "assay": "CD34+ cell differentiation with SCF, Flt3-L, GM-CSF and TNFα; flow cytometry of erythroid markers", "format": "cell-based", "conditions": "0.01-100 μM, six days of culture", "experimental": "as §1"}, "[6]": {"assay": "Cardiovascular and respiratory function in anesthetized dogs", "format": "in vivo, Beagle dogs", "experimental": "The effects of 3-(4-amino-1-oxo-1,3-dihydro-isoindol-2-yl)-piperidine-2,6-dione on cardiovascular and respiratory function are investigated in anesthetized dogs. Two groups of Beagle dogs (2/sex/group) are used. One group receives three doses of vehicle only and the other receives three ascending doses of 3-(4-amino-1-oxo-1,3-dihydro-isoindol-2-yl)-piperidine-2,6-dione (2, 10, and 20 mg/kg). In all cases, doses of 3-(4-amino-1-oxo-1,3-dihydro-isoindol-2-yl)-piperidine-2,6-dione or vehicle are successively administered via infusion through the jugular vein separated by intervals of at least 30 minutes."}}, "data": [{"smiles": "Nc1cccc2c1C(=O)N(C1CCC(=O)NC1=O)C2=O", "note": "(stereo not shown) [4-(Amino)-2-(2,6-dioxo(3-piperidyl))-isoindoline-1,3-dione]", "values": [{"measurement": "expression of genes encoding glycophorin B, rhesus blood group associated glycoprotein, Kell blood group precursor, EDRF/AHSP, erythroid Kruppel-like transcription factor", "setting": "[1]; SCF, Flt3-L, GM-CSF and TNFα", "value": "upregulated"}, {"measurement": "gene expression profile of erythroid-specific genes", "setting": "[1]; SCF, Flt3-L, GM-CSF and TNFα", "value": "upregulated"}, {"measurement": "increase of embryonic hemoglobin ε gene expression", "setting": "[1]; day 6 of CD34+ differentiation, vs DMSO", "value": 18, "unit": "fold"}, {"measurement": "induction of fetal hemoglobin production", "setting": "[2]; 10 μM, day 6 of differentiation", "value": 10, "unit": "fold"}, {"measurement": "fetal hemoglobin expression in combination with hydroxyurea", "setting": "[2]; combination with hydroxyurea, six days, SCF and Epo", "value": "striking synergy"}, {"measurement": "adult hemoglobin (HbA) expression", "setting": "[3]", "value": "decrease"}, {"measurement": "induction of hemoglobin F in erythroid precursors", "setting": "[3]", "value": "potent inducers of hemoglobin F"}, {"measurement": "cells expressing fetal hemoglobin", "setting": "[3]; 0.001-10 μM, vs DMSO", "value": "increase"}, {"measurement": "expression of glycophorin A", "setting": "[3]; FACS", "value": "slight decrease"}, {"measurement": "increase of Epo-induced STAT5 (Tyr694) phosphorylation", "setting": "[4]", "value": 2, "unit": "fold"}, {"measurement": "expression of fetal hemoglobin", "setting": "[5]", "value": "increased in a dose-dependent manner"}, {"measurement": "expression of glycophorin A", "setting": "[5]", "value": "increased in a dose-dependent manner"}]}, {"smiles": "NC(=O)NO", "note": "[Hydroxyurea, hydroxyurea, reference compound]", "values": [{"measurement": "fetal hemoglobin expression", "setting": "[2]; day 6 of differentiation", "value": "increased fetal hemoglobin expression"}]}, {"smiles": "Nc1ncn([C@@H]2O[C@H](CO)[C@@H](O)[C@H]2O)c(=O)n1", "note": "[5-azacytidine, reference compound]", "values": [{"measurement": "toxicity to cultured CD34+ cells", "setting": "[2]; 10 μM", "value": "toxic"}, {"measurement": "fetal hemoglobin expression", "setting": "[2]; day 6 of differentiation", "value": "increased fetal hemoglobin expression"}]}, {"smiles": "Nc1cccc2c1CN(C1CCC(=O)NC1=O)C2=O", "note": "(stereo not shown) [3-(4-amino-1-oxo-1,3-dihydroisoindol-2-yl)-piperidine-2,6-dione]", "values": [{"measurement": "cardiovascular and respiratory changes", "setting": "[6]; 2, 10 and 20 mg/kg by jugular vein infusion, vs vehicle", "value": "minimal at all doses"}, {"measurement": "deviations in femoral blood flow, respiratory parameters, and Qtc interval", "setting": "[6]; common to control and treated groups", "value": "not considered treatment-related"}, {"measurement": "duration of the arterial blood pressure increase", "setting": "[6]; low dose, not seen at higher doses", "value": "approximately 15 minutes"}, {"measurement": "arterial blood pressure", "setting": "[6]; low dose, small increase from 94 mmHg", "value": 101, "unit": "mmHg"}, {"measurement": "induction of hemoglobin F in erythroid precursors", "setting": "[3]", "value": "potent inducers of hemoglobin F"}, {"measurement": "expression of fetal hemoglobin", "setting": "[5]", "value": "increased in a dose-dependent manner"}, {"measurement": "expression of glycophorin A", "setting": "[5]", "value": "increased in a dose-dependent manner"}]}]}
